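Five concentrations, 48 hours, 96-well plates. GI50 = concentration required for 50% inhibition of growth.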 Active and inactive are the calls of the source. Cut-off read from the data, not from the text of the source: active = GI50 up to about 1.1 µM and inactive = higher. Where a SMILES comes first, the peptide text is derived from it. The star is where a group is joined. X33 = O=C(c1ccc(-c2ccc(Cl)cc2Cl)o1)*
What was measured:
Experiment in all cases: inhibition of tumour cell growth, NCI panel, 48 h
DU-145 = test system: DU-145
SN12C = test system: SN12C
SF-295 = test system: SF-295
Malme-3M = test system: Malme-3M
SNB-19 = test system: SNB-19
HCT-15 = test system: HCT-15
CAKI-1 = test system: CAKI-1
RPMI-8226 = test system: RPMI-8226
HCT-116 = test system: HCT-116
UACC-257 = test system: UACC-257
SK-OV-3 = test system: SK-OV-3
SK-MEL-2 = test system: SK-MEL-2
MOLT-4 = test system: MOLT-4
LOX IMVI = test system: LOX IMVI
Hs-578T = test system: Hs-578T
SW-620 = test system: SW-620
U-251 = test system: U-251
BT-549 = test system: BT-549
IGROV-1 = test system: IGROV-1
A498 = test system: A498

CCC(C)C(NC(=O)CNC(=O)C(Cc1ccccc1)NC(=O)C1CCCN1C(=O)c1ccc(-c2ccc(Cl)cc2Cl)o1)C(=O)OC (stereo not given) (X33-PFGI-OMe; configuration not given here)
GI50 (DU-145): 39.5 µM (inactive) | GI50 (SN12C): 19.8 µM (inactive) | GI50 (SF-295): 22 µM (inactive) | GI50 (Malme-3M): 53.7 µM (inactive) | GI50 (SNB-19): 48.1 µM (inactive) | GI50 (HCT-15): 43.1 µM | GI50 (CAKI-1): 31 µM (inactive) | GI50 (RPMI-8226): 14.7 µM (inactive) | GI50 (HCT-116): 13.6 µM (inactive) | GI50 (UACC-257): 16.8 µM (inactive) | GI50 (SK-OV-3): 89.5 µM (inactive) | GI50 (SK-MEL-2): 60.5 µM (inactive) | GI50 (MOLT-4): 10.6 µM (inactive) | GI50 (LOX IMVI): 33.3 µM (inactive) | GI50 (Hs-578T): 50.2 µM (inactive) | GI50 (SW-620): 23 µM (inactive) | GI50 (U-251): 24.5 µM (inactive) | GI50 (BT-549): 92.5 µM (inactive) | GI50 (IGROV-1): 19.6 µM (inactive) | GI50 (A498): 7.4 µM (inactive)

Oc1ccc(CNCc2ccccc2)c2cccnc12
GI50 (DU-145): 0.0452 µM (active) | GI50 (SN12C): 0.0601 µM (active) | GI50 (SF-295): 0.144 µM (active) | GI50 (Malme-3M): 0.321 µM (active) | GI50 (SNB-19): 0.211 µM (active) | GI50 (HCT-15): 0.0628 µM | GI50 (CAKI-1): 0.48 µM (active) | GI50 (RPMI-8226): 0.156 µM (active) | GI50 (HCT-116): 0.0594 µM (active) | GI50 (UACC-257): 0.262 µM (active) | GI50 (SK-OV-3): 0.542 µM (active) | GI50 (SK-MEL-2): 0.264 µM (active) | GI50 (MOLT-4): 0.215 µM (active) | GI50 (LOX IMVI): 0.0308 µM (active) | GI50 (Hs-578T): 0.243 µM (active) | GI50 (SW-620): 0.356 µM (active) | GI50 (U-251): 0.0384 µM (active) | GI50 (BT-549): 0.0703 µM (active) | GI50 (IGROV-1): 0.292 µM (active) | GI50 (A498): 0.354 µM (active)

CN(C)CCNC(=O)Cn1ccc(=O)c2c([N+](=O)[O-])cccc21
GI50 (DU-145): > 100 µM (inactive) | GI50 (SN12C): > 100 µM (inactive) | GI50 (SF-295): > 100 µM (inactive) | GI50 (Malme-3M): > 100 µM (inactive) | GI50 (SNB-19): > 100 µM (inactive) | GI50 (HCT-15): > 100 µM | GI50 (CAKI-1): > 100 µM (inactive) | GI50 (RPMI-8226): > 100 µM (inactive) | GI50 (HCT-116): > 100 µM (inactive) | GI50 (UACC-257): > 100 µM (inactive) | GI50 (SK-OV-3): > 100 µM (inactive) | GI50 (SK-MEL-2): > 100 µM (inactive) | GI50 (MOLT-4): > 100 µM (inactive) | GI50 (LOX IMVI): > 100 µM (inactive) | GI50 (Hs-578T): > 100 µM (inactive) | GI50 (SW-620): > 100 µM (inactive) | GI50 (U-251): > 100 µM (inactive) | GI50 (BT-549): > 100 µM (inactive) | GI50 (IGROV-1): > 100 µM (inactive) | GI50 (A498): > 100 µM (inactive)

COC(=O)/C=C(\S/C(=C(/c1ccccc1)n1cc(C(=O)OC)c(C(=O)OC)n1)c1ccccc1)C(=O)OC
GI50 (DU-145): 14.7 µM (inactive) | GI50 (SN12C): 16.5 µM (inactive) | GI50 (SF-295): 53.8 µM (inactive) | GI50 (Malme-3M): 14.8 µM (inactive) | GI50 (SNB-19): 19.5 µM (inactive) | GI50 (HCT-15): 11.6 µM | GI50 (CAKI-1): 2.48 µM (inactive) | GI50 (RPMI-8226): 1.95 µM (inactive) | GI50 (HCT-116): 12.1 µM (inactive) | GI50 (UACC-257): 7.33 µM (inactive) | GI50 (SK-OV-3): > 100 µM (inactive) | GI50 (SK-MEL-2): 14.9 µM (inactive) | GI50 (MOLT-4): 2.31 µM (inactive) | GI50 (LOX IMVI): 8.17 µM (inactive) | GI50 (Hs-578T): 33.3 µM (inactive) | GI50 (SW-620): 2.37 µM (inactive) | GI50 (U-251): 23.2 µM (inactive) | GI50 (BT-549): 38.5 µM (inactive) | GI50 (IGROV-1): 17.7 µM (inactive) | GI50 (A498): > 100 µM (inactive)

OC1C2CCCCN2C[C@@H](O)[C@H]1O (stereo not given in full)
GI50 (DU-145): > 100 µM (inactive) | GI50 (SN12C): > 100 µM (inactive) | GI50 (SF-295): > 100 µM (inactive) | GI50 (Malme-3M): > 100 µM (inactive) | GI50 (SNB-19): > 100 µM (inactive) | GI50 (HCT-15): > 100 µM | GI50 (CAKI-1): > 100 µM (inactive) | GI50 (RPMI-8226): > 100 µM (inactive) | GI50 (HCT-116): > 100 µM (inactive) | GI50 (UACC-257): > 100 µM (inactive) | GI50 (SK-OV-3): > 100 µM (inactive) | GI50 (SK-MEL-2): > 100 µM (inactive) | GI50 (MOLT-4): > 100 µM (inactive) | GI50 (LOX IMVI): > 100 µM (inactive) | GI50 (Hs-578T): > 100 µM (inactive) | GI50 (SW-620): > 100 µM (inactive) | GI50 (U-251): > 100 µM (inactive) | GI50 (BT-549): > 100 µM (inactive) | GI50 (IGROV-1): > 100 µM (inactive) | GI50 (A498): > 100 µM (inactive)

Reference: ChEMBL document CHEMBL1201862, “PubChem BioAssay data set” (2004)
